Like-named read-outs stand apart in the source and are kept apart here. One block for each molecule: values may come before it. *1 amine or outer side, *2 acyl side, *3 side chain or, on linkers, in order; H or OH if unused. Where a SMILES comes first, the peptide text is derived from it. Bridges are numbered along the chain shown (N, C = ends). Biphenyl(4,4'-CH2)2 = c1cc(-c2ccc(C[*:2])cc2)ccc1C[*:1]; Maleimide(3,4-diyl) = O=C1NC(=O)C([*:2])=C1[*:1]
Target: T1, Aurora-A122-403-C290A/C393A (Homo sapiens, UniProt O14965, C290A/C393A)
T1 construct: Human Aurora-A kinase domain 122-403 wild-type or C290A/ C393A mutant; His tag (pET30TEV vector) (N, cleaved yes); made in house; host or cells: E. coli RIL, co-expressed with lambda phosphatase (Aurora-A); tracer by solid phase synthesis
T1 sequence (O14965 122-403 C290A/C393A): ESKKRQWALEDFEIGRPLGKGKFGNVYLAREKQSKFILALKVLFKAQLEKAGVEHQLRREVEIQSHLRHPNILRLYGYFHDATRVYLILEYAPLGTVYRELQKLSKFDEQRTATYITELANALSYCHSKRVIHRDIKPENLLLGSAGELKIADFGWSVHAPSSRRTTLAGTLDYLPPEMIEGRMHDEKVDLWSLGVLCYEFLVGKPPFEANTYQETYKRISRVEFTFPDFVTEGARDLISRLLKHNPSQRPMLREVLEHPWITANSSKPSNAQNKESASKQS
Assay: Competition FA assay against FAM-Ahx-TACC3 522-536 tracer
Assay type: binding
Conditions: as E1, mean ± SD, n = 3
Procedure: Once completed, the mixtures were transferred into SPPS fritted reaction vessels and washed with H2O (5X, 10 mL, 2 min), DMF (5X, 5mL, 2 min) and DCM (5X, 5 mL, 2 min). The clean resins were dried under vacuum and the cyclic peptides cleaved from the resin following the general procedures described in previous sections. After Et2O precipitation, the crude materials were freeze-dried and redissolved in H2O/MeCN/TFA 90/10/0.1% v/v for preparative HPLC purification.
All disulfide peptide variants (ox) were produced in situ from their free-thiol solid precursors. For this, 2 mg of the pure peptide materials were dissolved in aqueous DMSO 33% v/v to a 10 mM concentration and were left open to air oxidation at room temperature overnight. […]
the peptides were employed for FA competition assays and IC50 evaluation without further additional […]
Fluorescence anisotropy (FA) assays – General information.
All assays were performed using 384-well plates(Greiner Bio-one, UK). […]
produced as described previously.11 All samples were prepared in 25 mM Tris,150 mM NaCl, 5 mM MgCl2, pH= 7.5, unless otherwise stated, and tested in triplicate using an EnVisionTM 2103 MultiLabel plate reader (PerkinElmer; Waltham, MA, USA).The parameters were set as follows: Excitation wavelength = 480 nm (30 nm bandwidth) and emission wavelength = 535 nm (30 nm bandwidth). Measured data were processed and analysed as previously described.12 Specifically, the perpendicular intensity (P) and parallel intensity (S) were subtracted by the control values and used for calculations of intensity and anisotropy using the following Equations 1, 2, 3, 4, and 5:
I= (2PG) + S Eq. (SI − 5)
r = (S − PG) Eq. (SI − 6)
L = r − r௠௜௡ Eq. (SI − 7)
y = (k + x + [FL]) − ඥ(k + x + [FL]2 − 4 ∗ x ∗ [FL]) Eq. (SI − 8)
y = r + r௠௜௡ − r௠௔௫ Eq. (SI − 9)
Where I = total intensity; P = perpendicular intensity; S = parallel intensity; G = instrument factor; r = anisotropy; Lb = ligand bound fraction; λ = change in intensity between bound and unbound states which […]
FA direct binding assays. […]
starting from 700 μM, diluted over 24 points in a 1/2 regime using the FAM-Ahx-labeled peptides at a final fixed concentration of 50 nM per well.
FA competition assays were performed using the same plates and buffer as described above, with the initial […]
14 points in a 1/2 regime. […]
after 4 h of incubation to enable appropriate sample equilibration. To prevent sample oxidation, when sulfhydryl peptides were analyzed DTT was added to the buffer (5 mM). In competition mode, the average anisotropy and the average standard deviation of the values derived from equation SI-6 were calculated and fit to a sigmoidal logistic model (equation SI-9) using Origin 2021. When using peptides for which full […]
For consistency, all the data […]
indicating the corresponding SD. […]

[1] = oxidised (disulfide) species made in situ from 10 mM stock in aqueous DMSO 33% v/v, air, overnight, WT control (+DMSO) given the same DMSO incubation, read-out: IC50 (ox)
[2] = free-sulfhydryl (reduced) species, DTT 5 mM in buffer, WT control (+DTT), read-out: IC50 (red)
[3] = Table S3 (mal): maleimide-constrained species, WT value is an individual replica control assay, read-out: IC50 (mal)

- IC50 (Table S3 (mal): maleimide-constrained species, WT value is an individual replica control assay, SD, read-out: IC50 (mal)): 480 ± 60 µM
Compound: CC(=O)N[C@@H](CCC(=O)O)C(=O)N[C@@H](CCC(=O)O)C(=O)N[C@@H](CO)C(=O)N[C@@H](Cc1ccccc1)C(=O)N[C@@H](CCCNC(=N)N)C(=O)N[C@@H](CC(=O)O)C(=O)N1CCC[C@H]1C(=O)N[C@@H](C)C(=O)N[C@@H](CCC(=O)O)C(=O)N[C@H](C(=O)N[C@H]1CSC2=C(SC[C@@H](C(=O)N[C@@H](C)C(N)=O)NC(=O)[C@H]([C@@H](C)O)NC(=O)CNC1=O)C(=O)NC2=O)C(C)C [TACC3 522-536 L532C/G535C (mal)] (Ac-EESFRDPAEVCGTCA-NH2; linker 11-14 via Maleimide(3,4-diyl))

- IC50 [1]: ≥ 500 µM
Compound: CC(=O)N[C@@H](CCC(=O)O)C(=O)N[C@@H](CCC(=O)O)C(=O)N[C@@H](CO)C(=O)N[C@@H](Cc1ccccc1)C(=O)N[C@@H](CCCNC(=N)N)C(=O)N[C@@H](CC(=O)O)C(=O)N1CCC[C@H]1C(=O)N[C@@H](C)C(=O)N[C@@H](CCC(=O)O)C(=O)N[C@H](C(=O)N[C@H]1CSSC[C@@H](C(=O)N[C@@H](C)C(N)=O)NC(=O)[C@H]([C@@H](C)O)NC(=O)CNC1=O)C(C)C [TACC3 522-536 L532C/G535C (ox)] (Ac-EESFRDPAEVCGTCA-NH2; disulfide 11-14)

- IC50 [2]: ≥ 500 µM
Compound: CC(=O)N[C@@H](CCC(=O)O)C(=O)N[C@@H](CCC(=O)O)C(=O)N[C@@H](CO)C(=O)N[C@@H](Cc1ccccc1)C(=O)N[C@@H](CCCNC(=N)N)C(=O)N[C@@H](CC(=O)O)C(=O)N1CCC[C@H]1C(=O)N[C@@H](C)C(=O)N[C@@H](CCC(=O)O)C(=O)N[C@H](C(=O)N[C@@H](CS)C(=O)NCC(=O)N[C@H](C(=O)N[C@@H](CS)C(=O)N[C@@H](C)C(N)=O)[C@@H](C)O)C(C)C [TACC3 522-536 L532C/G535C (red)] (Ac-EESFRDPAEVCGTCA-NH2)

- IC50 [3]: ≥ 500 µM
Compound: CC(=O)N[C@@H](CCC(=O)O)C(=O)N[C@@H](CCC(=O)O)C(=O)N[C@@H](CO)C(=O)N[C@@H](Cc1ccccc1)C(=O)N[C@@H](CCCNC(=N)N)C(=O)N[C@@H](CC(=O)O)C(=O)N[C@H]1CSC2=C(SC[C@@H](C(=O)N[C@@H](CC(C)C)C(=O)NCC(=O)N[C@H](C(=O)NCC(=O)N[C@@H](C)C(N)=O)[C@@H](C)O)NC(=O)[C@H](CCC(=O)O)NC(=O)[C@H](C)NC1=O)C(=O)NC2=O [TACC3 522-536 P528C/V531C (mal)] (Ac-EESFRDCAECLGTGA-NH2; linker 7-10 via Maleimide(3,4-diyl) (inferred))

- IC50 [1]: ≥ 500 µM
Compound: CC(=O)N[C@@H](CCC(=O)O)C(=O)N[C@@H](CCC(=O)O)C(=O)N[C@@H](CO)C(=O)N[C@@H](Cc1ccccc1)C(=O)N[C@@H](CCCNC(=N)N)C(=O)N[C@@H](CC(=O)O)C(=O)N[C@H]1CSSC[C@@H](C(=O)N[C@@H](CC(C)C)C(=O)NCC(=O)N[C@H](C(=O)NCC(=O)N[C@@H](C)C(N)=O)[C@@H](C)O)NC(=O)[C@H](CCC(=O)O)NC(=O)[C@H](C)NC1=O [TACC3 522-536 P528C/V531C (ox)] (Ac-EESFRDCAECLGTGA-NH2; disulfide 7-10)

- IC50 [2]: ≥ 500 µM
Compound: CC(=O)N[C@@H](CCC(=O)O)C(=O)N[C@@H](CCC(=O)O)C(=O)N[C@@H](CO)C(=O)N[C@@H](Cc1ccccc1)C(=O)N[C@@H](CCCNC(=N)N)C(=O)N[C@@H](CC(=O)O)C(=O)N[C@@H](CS)C(=O)N[C@@H](C)C(=O)N[C@@H](CCC(=O)O)C(=O)N[C@@H](CS)C(=O)N[C@@H](CC(C)C)C(=O)NCC(=O)N[C@H](C(=O)NCC(=O)N[C@@H](C)C(N)=O)[C@@H](C)O [TACC3 522-536 P528C/V531C (red)] (Ac-EESFRDCAECLGTGA-NH2)

- IC50 [3]: ≥ 500 µM
Compound: CC(=O)N[C@@H](CCC(=O)O)C(=O)N[C@@H](CCC(=O)O)C(=O)N[C@@H](CO)C(=O)N[C@@H](Cc1ccccc1)C(=O)N[C@H]1CSC2=C(SC[C@@H](C(=O)N[C@@H](CCC(=O)O)C(=O)N[C@H](C(=O)N[C@@H](CC(C)C)C(=O)NCC(=O)N[C@H](C(=O)NCC(=O)N[C@@H](C)C(N)=O)[C@@H](C)O)C(C)C)NC(=O)[C@@H]3CCCN3C(=O)[C@H](CC(=O)O)NC1=O)C(=O)NC2=O [TACC3 522-536 R526C/A529C (mal)] (Ac-EESFCDPCEVLGTGA-NH2; linker 5-8 via Maleimide(3,4-diyl) (inferred))

- IC50 [1]: ≥ 500 µM
Compound: CC(=O)N[C@@H](CCC(=O)O)C(=O)N[C@@H](CCC(=O)O)C(=O)N[C@@H](CO)C(=O)N[C@@H](Cc1ccccc1)C(=O)N[C@H]1CSSC[C@@H](C(=O)N[C@@H](CCC(=O)O)C(=O)N[C@H](C(=O)N[C@@H](CC(C)C)C(=O)NCC(=O)N[C@H](C(=O)NCC(=O)N[C@@H](C)C(N)=O)[C@@H](C)O)C(C)C)NC(=O)[C@@H]2CCCN2C(=O)[C@H](CC(=O)O)NC1=O [TACC3 522-536 R526C/A529C (ox)] (Ac-EESFCDPCEVLGTGA-NH2; disulfide 5-8)

- IC50 (free-sulfhydryl (reduced) species, DTT 5 mM in buffer, WT control (+DTT), SD, read-out: IC50 (red)): 352 ± 45 µM
Compound: CC(=O)N[C@@H](CCC(=O)O)C(=O)N[C@@H](CCC(=O)O)C(=O)N[C@@H](CO)C(=O)N[C@@H](Cc1ccccc1)C(=O)N[C@@H](CS)C(=O)N[C@@H](CC(=O)O)C(=O)N1CCC[C@H]1C(=O)N[C@@H](CS)C(=O)N[C@@H](CCC(=O)O)C(=O)N[C@H](C(=O)N[C@@H](CC(C)C)C(=O)NCC(=O)N[C@H](C(=O)NCC(=O)N[C@@H](C)C(N)=O)[C@@H](C)O)C(C)C [TACC3 522-536 R526C/A529C (red)] (Ac-EESFCDPCEVLGTGA-NH2)

- IC50 (Table S3 column (Bph): biphenyl-constrained species, WT value is an individual replica control assay, SD, read-out: IC50 (Bph)): 249 ± 43 µM
Compound: CC(=O)N[C@@H](CCC(=O)O)C(=O)N[C@@H](CCC(=O)O)C(=O)N[C@@H](CO)C(=O)N[C@@H](Cc1ccccc1)C(=O)N[C@H]1CSCc2ccc(cc2)-c2ccc(cc2)CSC[C@@H](C(=O)N[C@@H](CC(C)C)C(=O)NCC(=O)N[C@H](C(=O)NCC(=O)N[C@@H](C)C(N)=O)[C@@H](C)O)NC(=O)[C@H](CCC(=O)O)NC(=O)[C@H](C)NC(=O)[C@@H]2CCCN2C(=O)[C@H](CC(=O)O)NC1=O [TACC3 522-536 R526C/V531C (Bph)] (Ac-EESFCDPAECLGTGA-NH2; linker 5-10 via Biphenyl(4,4'-CH2)2)

- IC50 [1]: ≥ 500 µM
Compound: CC(=O)N[C@@H](CCC(=O)O)C(=O)N[C@@H](CCC(=O)O)C(=O)N[C@@H](CO)C(=O)N[C@@H](Cc1ccccc1)C(=O)N[C@H]1CSSC[C@@H](C(=O)N[C@@H](CC(C)C)C(=O)NCC(=O)N[C@H](C(=O)NCC(=O)N[C@@H](C)C(N)=O)[C@@H](C)O)NC(=O)[C@H](CCC(=O)O)NC(=O)[C@H](C)NC(=O)[C@@H]2CCCN2C(=O)[C@H](CC(=O)O)NC1=O [TACC3 522-536 R526C/V531C (ox)] (Ac-EESFCDPAECLGTGA-NH2; disulfide 5-10)

- IC50 [2]: ≥ 500 µM
Compound: CC(=O)N[C@@H](CCC(=O)O)C(=O)N[C@@H](CCC(=O)O)C(=O)N[C@@H](CO)C(=O)N[C@@H](Cc1ccccc1)C(=O)N[C@@H](CS)C(=O)N[C@@H](CC(=O)O)C(=O)N1CCC[C@H]1C(=O)N[C@@H](C)C(=O)N[C@@H](CCC(=O)O)C(=O)N[C@@H](CS)C(=O)N[C@@H](CC(C)C)C(=O)NCC(=O)N[C@H](C(=O)NCC(=O)N[C@@H](C)C(N)=O)[C@@H](C)O [TACC3 522-536 R526C/V531C (red)] (Ac-EESFCDPAECLGTGA-NH2)
